Results on 4 molecules are retold here after ChEMBL document CHEMBL6074652, “New rhodol-sulforaphane conjugates as innovative isothiocyanate-based cytotoxic agents for cancer cells” (Eur J Med Chem, 2024).

For orientation: IC50 means the midpoint of a concentration-inhibition curve.

Structures are written as SMILES. Activity calls are given as the source filed them. The calls are words filed in the database; no cut-off is given here.

Test [1] relates to Jurkat. Briefly: Cytotoxicity against human Jurkat cells assessed as inhibition of cell viability < 32 uM incubated for 72 hrs by trypan blue staining based MTT assay. It is filed as functional.
The subject of test [2] is Jurkat. Nature of the test: Induction of DNA damage in human Jurkat cells assessed as single strand breaks at <32 uM by measuring nuclear diffusion factor by fast halo based fluorescence microscopic analysis. The class given is functional, cell-based.
The test system of test [3] is Jurkat. Nature of the test: Induction of DNA damage in human Jurkat cells assessed as fold increase in H2AX phosphorylation expression at 4 to 8 uM incubated for 30 mins by flow cytometric analysis. It is filed as functional. To be noted: dose 4-8 µM, 0.5 h.
The test system of test [4] is Jurkat. Nature of the test: Cytotoxicity against human Jurkat cells assessed as inhibition of cell viability incubated for 72 hrs by trypan blue staining based MTT assay. It is filed as functional. (In general: Formazan colour is commonly taken as a measure of viable cells.)
For test [5], the system named is TK6. Briefly: Induction of DNA damage in human TK6 cells assessed as accumulation of single strand breaks at 2 to 8 uM by measuring nuclear diffusion factor by fast halo based fluorescence microscopic analysis. The class given is functional, cell-based. To be noted: dose 2-8 µM.
The test system of test [6] is TK6. Nature of the test: Cytotoxicity against human TK6 cells assessed as reduction in cell viability at 0 to 6 uM incubated for 24 hrs by trypan blue staining based MTT assay. The class given is functional. To be noted: dose 0-6 µM.
Test [7] concerns U-937. Nature of the test: Cytotoxicity against human U-937 cells assessed as reduction in cell viability at 0 to 8 uM incubated for 24 hrs by trypan blue staining based MTT assay. It is filed as functional. Particulars: dose 0-8 µM.
In test [8] the test system is OCI-AML-3. Briefly: Cytotoxicity against human OCI-AML-3 cells assessed as reduction in cell viability at 0 to 8 uM incubated for 24 hrs by trypan blue staining based MTT assay. To be noted: dose 0-8 µM. It is filed as functional.
Test [9] deals with MOLM-13. Nature of the test: Cytotoxicity against human MOLM-13 cells assessed as reduction in cell viability at 0 to 8 uM incubated for 24 hrs by trypan blue staining based MTT assay. It is filed as functional. To be noted: dose 0-8 µM.
The test system of test [10] is MV4-11. Nature of the test: Cytotoxicity against human MV4-11 cells assessed as reduction in cell viability at 0 to 8 uM incubated for 24 hrs by trypan blue staining based MTT assay. The class given is functional. To be noted: dose 0-8 µM.
Test [11] concerns RPMI-1788. Briefly: Cytotoxicity against human RPMI-1788 cells assessed as reduction in cell viability at 0 to 8 uM incubated for 24 hrs by trypan blue staining based MTT assay. The class given is functional. To be noted: dose 0-8 µM.
The subject of test [12] is TK6. Briefly: Cytotoxicity against human TK6 cells assessed as reduction in cell viability incubated for 24 hrs by trypan blue staining based MTT assay. The class given is functional. Particulars: dose 0-6 µM.
For test [13], the system named is U-937. Briefly: Cytotoxicity against human U-937 cells assessed as reduction in cell viability incubated for 24 hrs by trypan blue staining based MTT assay. The class given is functional. Particulars: dose 0-8 µM.
Test [14] concerns OCI-AML-3. Briefly: Cytotoxicity against human OCI-AML-3 cells assessed as reduction in cell viability incubated for 24 hrs by trypan blue staining based MTT assay. To be noted: dose 0-8 µM. The class given is functional.
Test [15] concerns MOLM-13. Nature of the test: Cytotoxicity against human MOLM-13 cells assessed as reduction in cell viability incubated for 24 hrs by trypan blue staining based MTT assay. The class given is functional. To be noted: dose 0-8 µM.
For test [16], the system named is MV4-11. Briefly: Cytotoxicity against human MV4-11 cells assessed as reduction in cell viability incubated for 24 hrs by trypan blue staining based MTT assay. It is filed as functional. Particulars: dose 0-8 µM.
In test [17] the test system is RPMI-1788. Briefly: Cytotoxicity against human RPMI-1788 cells assessed as reduction in cell viability incubated for 24 hrs by trypan blue staining based MTT assay. The class given is functional. To be noted: dose 0-8 µM.
Test [18] deals with Jurkat. Nature of the test: Induction of apoptosis in human Jurkat cells assessed as increase in caspase-3 activity incubated for 2 hrs by colorimetric protease assay. It is filed as functional, cell-based. To be noted: dose 2-6 µM.
Test [19] has as its system Jurkat. Briefly: Induction of apoptosis in human Jurkat cells assessed as increase in caspase-8 activity incubated for 2 hrs by colorimetric protease assay. The class given is functional, cell-based. Particulars: dose 2-6 µM.
Test [20] deals with Mitochondrial membrane. Briefly: Induction of mitochondrial membrane potential loss in human Jurkat cells at 2 to 6 uM by flow cytometric analysis. Particulars: dose 2-6 µM.
Test [21] concerns Jurkat. Nature of the test: Induction of DNA damage in human Jurkat cells assessed as single strand breaks at 8 uM by measuring nuclear diffusion factor measured after 3 hrs by fast halo based fluorescence microscopic analysis relative to control. It is filed as functional.
For test [22], the system named is Jurkat. Nature of the test: Induction of apoptosis in human Jurkat cells assessed as cleavage of PARP1 at 4 to 6 uM by flow cytometric analysis. Particulars: dose 4-6 µM. It is filed as functional, cell-based.
Test [23] concerns Jurkat. Nature of the test: Induction of DNA damage in human Jurkat cells assessed as fold increase in p53 expression at 4 uM by flow cytometric analysis. The class given is functional. (In general: In flow cytometry, cells or beads pass a laser one at a time.)
Test [24] deals with Jurkat. Briefly: Induction of DNA damage in human Jurkat cells assessed as increase in accumulation of single strand breaks by measuring nuclear diffusion factor by fast halo based fluorescence microscopic analysis. To be noted: dose 0-8 µM. The class given is functional, cell-based.
The test system of test [25] is Jurkat. Nature of the test: Induction of DNA damage in human Jurkat cells assessed as accumulation of single strand breaks at 2 to 8 uM by measuring nuclear diffusion factor by fast halo based fluorescence microscopic analysis. The class given is functional, cell-based. To be noted: dose 2-8 µM.
Test [26] relates to TK6. Briefly: Induction of DNA damage in human TK6 cells assessed as micronuclei formation incubated for 4 hrs by May-Grunwald/Giemsa staining based microscopic analysis. The class given is functional, cell-based. Particulars: dose 1-4 µM.
For test [27], the system named is TK6. Nature of the test: Induction of DNA damage in human TK6 cells assessed as micronuclei formation at >4 uM incubated for 4 hrs by May-Grunwald/Giemsa staining based microscopic analysis. The class given is functional, cell-based.
Test [28] has as its system TK6. Nature of the test: Induction of DNA damage in human TK6 cells assessed as micronuclei formation at 2 uM incubated for 4 hrs by May-Grunwald/Giemsa staining based microscopic analysis. The class given is functional, cell-based.
In test [29] the test system is TK6. Nature of the test: Induction of DNA damage in human TK6 cells assessed as micronuclei formation at 4 uM by measuring 1000 binucleated cells incubated for 4 hrs by May-Grunwald/Giemsa staining based microscopic analysis. It is filed as functional.
The test system of test [30] is Jurkat. Briefly: Induction of DNA damage in human Jurkat cells assessed as accumulation of single strand breaks at 2 to 6 uM under 4 degreeC incubated for 1 hr by measuring nuclear diffusion factor by fast halo based fluorescence microscopic analysis. Particulars: dose 2-6 µM. It is filed as functional, cell-based.
Test [31] relates to Jurkat. Nature of the test: Cytotoxicity against human Jurkat cells assessed as cell growth inhibition under 4 degreeC incubated for 72 hrs by trypan blue staining based MTT assay. The class given is functional.
For test [32], the system named is Jurkat. Briefly: Cytotoxicity against human Jurkat cells assessed as cell growth inhibition under 37 degreeC incubated for 72 hrs by trypan blue staining based MTT assay. It is filed as functional.
Test [33] concerns Jurkat. Nature of the test: Induction of DNA damage in human Jurkat cells at 4 uM assessed as nuclear diffusion factor incubated for 1 hr in presence of iron-chelator o-phenanthroline by fast halo based fluorescence microscopic analysis. The class given is functional, cell-based.
For test [34], the system named is Jurkat. Briefly: Induction of DNA damage in human Jurkat cells at 4 uM assessed as nuclear diffusion factor incubated for 1 hr in presence of rotenone by fast halo based fluorescence microscopic analysis. The class given is functional, cell-based.
The subject of test [35] is Jurkat. Nature of the test: Cytotoxicity against human Jurkat cells at 4 uM in presence of iron-chelator o-phenanthroline by trypan blue staining based MTT assay. The class given is functional, cell-based.
Test [36] concerns Jurkat. Briefly: Cytotoxicity against human Jurkat cells at 4 uM incubated for 1 hr in presence of rotenone by trypan blue staining based MTT assay. It is filed as functional, cell-based.
Test [37] relates to Jurkat. Nature of the test: Induction of DNA damage in human Jurkat cells measured at 1 hr. It is filed as functional, cell-based. Particulars: dose 6.0 µM.
In test [38] the test system is Jurkat. Nature of the test: Cytotoxicity against human Jurkat cells assessed as cell survival rate at 30 uM incubated for 72 hrs by trypan blue staining based MTT assay. To be noted: read-out: Survival.
In test [39] the test system is Jurkat. Nature of the test: Induction of apoptosis in human Jurkat cells assessed as appearance of chromatin condensation pretreated with compound for 1 hr and measured after 5 hrs by uranyl acetate and lead citrate staining based transmission electron microscopic analysis. It is filed as functional, cell-based. To be noted: time 6.0 hrs.
Test [40] concerns Jurkat. Briefly: Induction of apoptosis in human Jurkat cells assessed as appearance of cup-shaped masses pretreated with compound for 1 hr and measured after 5 hrs by uranyl acetate and lead citrate staining based transmission electron microscopic analysis. It is filed as functional, cell-based. Particulars: time 6.0 hrs.
Test [41] concerns Jurkat. Nature of the test: Induction of apoptosis in human Jurkat cells assessed as appearance of micronuclei pretreated with compound for 1 hr and measured after 5 hrs by uranyl acetate and lead citrate staining based transmission electron microscopic analysis. To be noted: time 6.0 hrs. It is filed as functional, cell-based.
Test [42] has as its system Jurkat. Briefly: Induction of apoptosis in human Jurkat cells assessed as appearance of secondary necrosis pretreated with compound for 1 hr and measured after 5 hrs by uranyl acetate and lead citrate staining based transmission electron microscopic analysis. It is filed as functional, cell-based. Particulars: time 6.0 hrs.
In test [43] the test system is Jurkat. Briefly: Induction of DNA damage in human Jurkat cells at 6 uM assessed as nuclear diffusion factor incubated for 1 hr in presence of iron-chelator o-phenanthroline by fast halo based fluorescence microscopic analysis. It is filed as functional, cell-based.
The test system of test [44] is Jurkat. Nature of the test: Induction of DNA damage in human Jurkat cells at 6 uM assessed as nuclear diffusion factor incubated for 1 hr in presence of rotenone by fast halo based fluorescence microscopic analysis. It is filed as functional, cell-based.
The subject of test [45] is Jurkat. Briefly: Cytotoxicity against human Jurkat cells at 6 uM in presence of iron-chelator o-phenanthroline by trypan blue staining based MTT assay. It is filed as functional, cell-based.
Test [46] concerns Jurkat. Nature of the test: Cytotoxicity against human Jurkat cells at 6 uM incubated for 1 hr in presence of rotenone by trypan blue staining based MTT assay. It is filed as functional, cell-based.

In the case of `Cc1ccccc1-c1c2ccc(=O)cc-2oc2cc(OCCCCCCN)ccc12`, the result in test [1] and in test [2] was inactive.
As for `Cc1ccccc1-c1c2ccc(=O)cc-2oc2cc(OCCOCCN=C=S)ccc12`, the “fold change (FC)” value in test [3] is on record as 2; in [23], 70.4. Moreover, the Activity entry in test [4], in test [12], in test [13], in test [14], in test [15] and in [16] was “Dose-dependent-effect” in each case. In addition, the Activity entry in test [17] was “Dose-dependent-effect”; in test [18], “Dose-dependent-effect”; in test [19], “Dose-dependent-effect”; in test [21], 48.7%; in test [24] it was “Dose-dependent-effect”; in test [26] it was “Dose-dependent-effect”. Moreover, the Activity in test [29] is 19.59; in test [37] it was “Dose-dependent-effect”. Besides, the IC50 worked out at 3.65 µM in test [4], 2.54 µM in [31] and 3.65 µM in test [32]. For the same molecule, the result in test [5], in test [6], in test [7], in test [8], in [9] and in test [10] was Active. The result in test [11], in test [20], in [22], in test [25], in [27] and in test [28] was Active. Besides, the result in [30], in test [33], in [34], in test [35] and in test [36] was Active.
With `C[S+]([O-])CCCCN=C=S` (centres undefined) [SULFORAPHANE], the IC50 in test [4] was found to be 29.7 µM. The viability at 30 µM in test [38] was 66.2%.
Regarding `Cc1ccccc1-c1c2ccc(=O)cc-2oc2cc(OCCCCCCN=C=S)ccc12`, the “fold change (FC)” value stood at 2 in test [3] and 45.5 in [23]. For the same molecule, the Activity result in test [4], in test [12], in test [13], in test [14], in test [15] and in test [16] was “Dose-dependent-effect” each time. Besides, the Activity entry in [17] is “Dose-dependent-effect”; in [18], “Dose-dependent-effect”; in test [19], “Dose-dependent-effect”; in [21], 59.2%; in test [24], “Dose-dependent-effect”; in [26], “Dose-dependent-effect”. The figures for the Activity in test [29] and in [37] were 13.07 and “Dose-dependent-effect”, respectively. Further, the IC50 in test [4] was 5.96 µM; in test [31], 3.99 µM; in [32], 5.96 µM. In addition, the result in test [5], in [6], in test [7], in test [8], in test [9] and in test [10] was Active. The result in test [11], in test [39], in test [40], in [41], in test [42] and in [20] was Active. Also, the outcome in [22], in test [25], in [27], in test [30], in [43] and in [44] was Active. Moreover, the outcome in test [45] and in [46] was Active.
